In PubChem BioAssay AID1259407 (Chemical Carcinogenesis Research Information System (CCRIS), 2018):
The source made the active and inactive calls. How the calls were made is not given here.

System: CCRIS mutagenicity, Ames/micronucleus/aberration tests
Test: CCRIS mutagenicity studies
[1] = Test System: AMES SALMONELLA TYPHIMURIUM, Strain/Indicator: TA98, Metabolic Activation: RAT, LIVER, S-9, AROCLOR 1254, Method: STANDARD PLATE
[2] = Test System: AMES SALMONELLA TYPHIMURIUM, Strain/Indicator: TA100, Metabolic Activation: NONE, Method: STANDARD PLATE
[3] = Test System: AMES SALMONELLA TYPHIMURIUM, Strain/Indicator: TA100, Metabolic Activation: RAT, LIVER, S-9, AROCLOR 1254, Method: STANDARD PLATE
[4] = Test System: AMES SALMONELLA TYPHIMURIUM, Strain/Indicator: TA1535, Metabolic Activation: NONE, Method: STANDARD PLATE
[5] = Test System: AMES SALMONELLA TYPHIMURIUM, Strain/Indicator: TA1535, Metabolic Activation: RAT, LIVER, S-9, AROCLOR 1254, Method: STANDARD PLATE
[6] = Test System: AMES SALMONELLA TYPHIMURIUM, Strain/Indicator: TA1538, Metabolic Activation: RAT, LIVER, S-9, AROCLOR 1254, Method: STANDARD PLATE
[7] = Test System: E. COLI, Strain/Indicator: WP2 UVRA, Metabolic Activation: NONE, Method: STANDARD PLATE

**Q.** How did the mutagenic call (Test System: AMES SALMONELLA TYPHIMURIUM, Strain/Indicator: TA98, Metabolic Activation: NONE, Method: STANDARD PLATE) turn out when `COc1cc(CCC(C)=O)ccc1O` was run?
**A.** inactive; negative

**Q.** And the mutagenic call [1]?
**A.** inactive; negative

**Q.** And the mutagenic call [2]?
**A.** inactive; negative

**Q.** And the mutagenic call [3]?
**A.** inactive; negative

**Q.** What about the mutagenic call [4] of the same compound?
**A.** inactive; negative

**Q.** And the mutagenic call [5]?
**A.** inactive; negative

**Q.** And the mutagenic call (Test System: AMES SALMONELLA TYPHIMURIUM, Strain/Indicator: TA1538, Metabolic Activation: NONE, Method: STANDARD PLATE)?
**A.** inactive; negative

**Q.** What about the mutagenic call [6] of the same compound?
**A.** inactive; negative

**Q.** What about the mutagenic call (Test System: E. COLI, Strain/Indicator: CM561 LEXA, Metabolic Activation: NONE, Method: STANDARD PLATE) of the same compound?
**A.** inactive; negative

**Q.** What about the mutagenic call (Test System: E. COLI, Strain/Indicator: CM611 UVRA/LEXA, Metabolic Activation: NONE, Method: STANDARD PLATE) of the same compound?
**A.** inactive; negative

**Q.** And the mutagenic call [7]?
**A.** inactive; negative

**Q.** With `CC(=O)Nc1ccc(C(=O)CCl)cc1` as the compound, how does the mutagenic call (Test System: AMES SALMONELLA TYPHIMURIUM, Strain/Indicator: TA98, Metabolic Activation: HAMSTER, LIVER, S-9, AROCLOR 1254, Method: STANDARD PLATE) read?
**A.** active; positive

**Q.** And the mutagenic call (Test System: AMES SALMONELLA TYPHIMURIUM, Strain/Indicator: TA98, Metabolic Activation: HAMSTER, LIVER, S-9, Method: STANDARD PLATE)?
**A.** active; positive

**Q.** And the mutagenic call (Test System: AMES SALMONELLA TYPHIMURIUM, Strain/Indicator: TA98, Metabolic Activation: MOUSE, LIVER, S-9, Method: STANDARD PLATE)?
**A.** inactive; negative

**Q.** And the mutagenic call (Test System: AMES SALMONELLA TYPHIMURIUM, Strain/Indicator: TA98, Metabolic Activation: NONE)?
**A.** active; positive

**Q.** And the mutagenic call [1]?
**A.** inactive; negative

**Q.** And the mutagenic call (Test System: AMES SALMONELLA TYPHIMURIUM, Strain/Indicator: TA98, Metabolic Activation: RAT, LIVER, S-9, PHENOBARBITONE AND BETA-NAPHTHOFLAVONE)?
**A.** active; positive

**Q.** What about the mutagenic call (Test System: AMES SALMONELLA TYPHIMURIUM, Strain/Indicator: TA98, Metabolic Activation: RAT, LIVER, S-9, Method: STANDARD PLATE) of the same compound?
**A.** inactive; negative

**Q.** And the mutagenic call (Test System: AMES SALMONELLA TYPHIMURIUM, Strain/Indicator: TA100, Metabolic Activation: HAMSTER, LIVER, S-9, AROCLOR 1254, Method: STANDARD PLATE)?
**A.** inactive; negative

**Q.** What about the mutagenic call (Test System: AMES SALMONELLA TYPHIMURIUM, Strain/Indicator: TA100, Metabolic Activation: HAMSTER, LIVER, S-9, Method: STANDARD PLATE) of the same compound?
**A.** inactive; negative

**Q.** What about the mutagenic call (Test System: AMES SALMONELLA TYPHIMURIUM, Strain/Indicator: TA100, Metabolic Activation: MOUSE, LIVER, S-9, AROCLOR 1254, Method: STANDARD PLATE) of the same compound?
**A.** inactive; negative

**Q.** What about the mutagenic call (Test System: AMES SALMONELLA TYPHIMURIUM, Strain/Indicator: TA100, Metabolic Activation: MOUSE, LIVER, S-9, Method: STANDARD PLATE) of the same compound?
**A.** inactive; negative

**Q.** And the mutagenic call (Test System: AMES SALMONELLA TYPHIMURIUM, Strain/Indicator: TA100, Metabolic Activation: NONE)?
**A.** inactive; negative

**Q.** And the mutagenic call [2]?
**A.** inactive; negative

**Q.** What about the mutagenic call [3] of the same compound?
**A.** inactive; negative

**Q.** What about the mutagenic call (Test System: AMES SALMONELLA TYPHIMURIUM, Strain/Indicator: TA100, Metabolic Activation: RAT, LIVER, S-9, PHENOBARBITONE AND BETA-NAPHTHOFLAVONE) of the same compound?
**A.** inactive; negative

**Q.** What about the mutagenic call (Test System: AMES SALMONELLA TYPHIMURIUM, Strain/Indicator: TA100, Metabolic Activation: RAT, LIVER, S-9, Method: STANDARD PLATE) of the same compound?
**A.** inactive; negative

**Q.** What about the mutagenic call (Test System: AMES SALMONELLA TYPHIMURIUM, Strain/Indicator: TA1535, Metabolic Activation: HAMSTER, LIVER, S-9, AROCLOR 1254, Method: STANDARD PLATE) of the same compound?
**A.** inactive; negative

**Q.** And the mutagenic call (Test System: AMES SALMONELLA TYPHIMURIUM, Strain/Indicator: TA1535, Metabolic Activation: HAMSTER, LIVER, S-9, Method: STANDARD PLATE)?
**A.** inactive; negative

**Q.** And the mutagenic call (Test System: AMES SALMONELLA TYPHIMURIUM, Strain/Indicator: TA1535, Metabolic Activation: MOUSE, LIVER, S-9, AROCLOR 1254, Method: STANDARD PLATE)?
**A.** inactive; negative

**Q.** And the mutagenic call (Test System: AMES SALMONELLA TYPHIMURIUM, Strain/Indicator: TA1535, Metabolic Activation: MOUSE, LIVER, S-9, Method: STANDARD PLATE)?
**A.** inactive; negative

**Q.** And the mutagenic call [4]?
**A.** inactive; negative

**Q.** What about the mutagenic call [5] of the same compound?
**A.** inactive; negative

**Q.** And the mutagenic call (Test System: AMES SALMONELLA TYPHIMURIUM, Strain/Indicator: TA1535, Metabolic Activation: RAT, LIVER, S-9, Method: STANDARD PLATE)?
**A.** inactive; negative

**Q.** What about the mutagenic call (Test System: AMES SALMONELLA TYPHIMURIUM, Strain/Indicator: TA1537, Metabolic Activation: HAMSTER, LIVER, S-9, Method: STANDARD PLATE) of the same compound?
**A.** inactive; negative

**Q.** And the mutagenic call (Test System: AMES SALMONELLA TYPHIMURIUM, Strain/Indicator: TA1537, Metabolic Activation: MOUSE, LIVER, S-9, Method: STANDARD PLATE)?
**A.** inactive; negative

**Q.** And the mutagenic call (Test System: AMES SALMONELLA TYPHIMURIUM, Strain/Indicator: TA1538, Metabolic Activation: NONE)?
**A.** inactive; negative

**Q.** What about the mutagenic call [6] of the same compound?
**A.** inactive; negative

**Q.** And the mutagenic call (Test System: AMES SALMONELLA TYPHIMURIUM, Strain/Indicator: TA1538, Metabolic Activation: RAT, LIVER, S-9, PHENOBARBITONE AND BETA-NAPHTHOFLAVONE)?
**A.** active; positive

**Q.** And the mutagenic call (Test System: AMES SALMONELLA TYPHIMURIUM, Strain/Indicator: TA1538, Metabolic Activation: RAT, LIVER, S-9, Method: STANDARD PLATE)?
**A.** inactive; negative

**Q.** And the mutagenic call (Test System: E. COLI, Strain/Indicator: WP2 UVRA, Metabolic Activation: HAMSTER, LIVER, S-9, AROCLOR 1254, Method: STANDARD PLATE)?
**A.** inactive; negative

**Q.** And the mutagenic call (Test System: E. COLI, Strain/Indicator: WP2 UVRA, Metabolic Activation: HAMSTER, LIVER, S-9, Method: STANDARD PLATE)?
**A.** inactive; negative

**Q.** And the mutagenic call (Test System: E. COLI, Strain/Indicator: WP2 UVRA, Metabolic Activation: MOUSE, LIVER, S-9, Method: STANDARD PLATE)?
**A.** inactive; negative

**Q.** And the mutagenic call [7]?
**A.** inactive; negative

**Q.** What about the mutagenic call (Test System: E. COLI, Strain/Indicator: WP2 UVRA, Metabolic Activation: RAT, LIVER, S-9, AROCLOR 1254, Method: STANDARD PLATE) of the same compound?
**A.** inactive; negative

**Q.** And the mutagenic call (Test System: E. COLI, Strain/Indicator: WP2 UVRA, Metabolic Activation: RAT, LIVER, S-9, Method: STANDARD PLATE)?
**A.** inactive; negative

**Q.** Which mutagenic call (Test System: AMES SALMONELLA TYPHIMURIUM, Strain/Indicator: TA98, Metabolic Activation: NONE, Method: PREINCUBATION) does the source give for `CNS(=O)(=O)c1ccc(NC(C)=O)cc1` here?
**A.** inactive; negative

**Q.** What about the mutagenic call (Test System: AMES SALMONELLA TYPHIMURIUM, Strain/Indicator: TA98, Metabolic Activation: RAT, LIVER, S-9, AROCLOR 1254, Method: PREINCUBATION) of the same compound?
**A.** inactive; negative

**Q.** What about the mutagenic call (Test System: AMES SALMONELLA TYPHIMURIUM, Strain/Indicator: TA100, Metabolic Activation: NONE, Method: PREINCUBATION) of the same compound?
**A.** inactive; negative

**Q.** And the mutagenic call (Test System: AMES SALMONELLA TYPHIMURIUM, Strain/Indicator: TA100, Metabolic Activation: RAT, LIVER, S-9, AROCLOR 1254, Method: PREINCUBATION)?
**A.** inactive; negative
